Reference: PubChem BioAssay (NCI)
Where “and” joins values, the source holds several entries; their conditions need not be identical. Equal values may be shown once.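 Exposure lasted 48 hours, with cells grown in 96-well plates and compounds tested at five concentrations. GI50: concentration for 50% inhibition of growth. TGI: total growth inhibition.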

Assays:
Test in all cases: NCI anticancer screen, dose series, 48 h
IGROV1 ovarian = tested on: IGROV1 ovarian
EKVX NSCLC = tested on: EKVX NSCLC
MOLT-4 leukemia = tested on: MOLT-4 leukemia
HL-60(TB) leukemia = tested on: HL-60(TB) leukemia
HOP-92 NSCLC = tested on: HOP-92 NSCLC
HCC-2998 colon = tested on: HCC-2998 colon
786-0 renal = tested on: 786-0 renal
CCRF-CEM leukemia = tested on: CCRF-CEM leukemia
OVCAR-5 ovarian = tested on: OVCAR-5 ovarian
A498 renal = tested on: A498 renal

Compound | TGI (IGROV1 ovarian) [µM] | TGI (EKVX NSCLC) | TGI (MOLT-4 leukemia) | TGI (HL-60(TB) leukemia) | TGI (HOP-92 NSCLC) | TGI (HCC-2998 colon) | TGI (786-0 renal) [µM] | TGI (CCRF-CEM leukemia) [µM] | TGI (OVCAR-5 ovarian) | TGI (A498 renal) | GI50 (IGROV1 ovarian) | GI50 (EKVX NSCLC) | GI50 (MOLT-4 leukemia) | GI50 (HL-60(TB) leukemia) | GI50 (HOP-92 NSCLC) | GI50 (HCC-2998 colon) | GI50 (786-0 renal) | GI50 (CCRF-CEM leukemia) | GI50 (OVCAR-5 ovarian) | GI50 (A498 renal)
C[C@]12CCC(=O)C(O)=C1CC[C@@H]1[C@@H]2CC[C@]2(C)C(=O)CC[C@@H]12 | > 100 | > 100 µM | > 100 µM | > 100 µM | > 100 µM | > 100 µM | > 100 | > 100 | > 100 µM | > 100 µM | – | – | – | – | – | – | – | – | – | –
Cc1ccc2c(=O)c3cccc(CC(=O)O)c3oc2c1C | > 100 | > 100 µM | > 100 µM | > 100 µM | > 100 µM | > 100 µM | > 100 | > 100 | > 100 µM | > 100 µM | > 100 µM | > 100 µM | > 100 µM | > 100 µM | > 100 µM | > 100 µM | > 100 µM | > 100 µM | > 100 µM | 70.6 µM
O=C1c2ccccc2-c2c1c1ccccc1c(=O)n2CCCN1CCOCC1 | > 50.1 | 76.4 µM | > 100 µM | > 100 µM | 13 µM | > 100 µM | 18.5 | > 100 | > 100 µM | 71.4 µM | 8.36 µM | 22.7 µM | 8.11 µM | 24.9 µM | 4.81 µM | > 40.1 µM | 3.94 µM | > 38.4 µM | 35.9 µM | 21.7 µM
CNC(=O)c1cccc(-c2ccc3c(N4CCOC[C@@H]4C)nc(N4CCOC[C@@H]4C)nc3n2)c1 | – | 0.765 µM and 2 µM | 28.9 µM and > 10 µM and > 44.4 µM | 25.2 µM and > 10 µM and 64.1 µM | 0.238 µM and 0.0728 µM | > 100 µM and > 10 µM and 36.6 µM | > 32.8 | > 100 | 73.7 µM and > 4.52 µM | 0.0827 µM and 0.142 µM and 0.0801 µM | 0.0443 µM and 0.0381 µM and 0.0224 µM | 0.0998 µM and 0.139 µM | 0.101 µM and 0.146 µM and 0.214 µM | 0.353 µM and 0.37 µM and 2.91 µM | 0.0187 µM and < 0.0133 µM | 0.221 µM and 0.43 µM and 0.182 µM | 0.229 µM and 0.252 µM | 0.177 µM and 0.217 µM and 0.163 µM | 0.0765 µM and 0.122 µM and 0.0739 µM | 0.0183 µM and 0.0258 µM and < 0.0141 µM
Cc1cc(C)nc(Nc2nc3ccc([N+](=O)[O-])cc3[nH]2)n1 | > 100 | > 100 µM | > 100 µM | > 100 µM | > 100 µM | > 100 µM | > 100 | > 100 | > 100 µM | > 100 µM | – | – | – | – | – | – | – | – | – | –
CC(=O)/C=C/c1ccc(C2CC(C)=Nc3c(ccc4c3C(=O)c3ccccc3C4=O)N2)cc1 (configuration not stated) | > 100 | > 100 µM | > 100 µM | > 100 µM | > 100 µM | > 100 µM | > 100 | > 100 | > 100 µM | > 100 µM | – | – | – | – | – | – | – | – | – | –
CCN(CC)CCOc1ccc(/C=C2\CC3C4CC=C5C[C@@H](N6CCCC6)CC[C@]5(C)C4CC[C@]3(C)[C@H]2O)cc1OC (some centres not stated) | > 27.6 | > 77.4 µM | > 21.6 µM | 35.2 µM | 32.7 µM | 4.79 µM | 10.1 | 4.77 | > 72.8 µM | 1.46 µM | 8.91 µM | 12.9 µM | 2.2 µM | 13.8 µM | 8.14 µM | 1.71 µM | 2.64 µM | 1.14 µM | 24 µM | 0.0502 µM
CC1=Cc2cc3[n-]c(cc4nc(cc5[n-]c(cc1n2)cc5C)C(C)=C4CCC(=O)O)c(CCC(=O)O)c3C.[Pd+2] | 25.6 | > 54.6 µM | 27.5 µM | 14.2 µM | > 23.8 µM | 28.8 µM | > 49.6 | 13.7 | 58.2 µM | 29.8 µM | 14.2 µM | > 28.9 µM | 10.1 µM | 7.21 µM | – | 10.2 µM | > 21.8 µM | 5.37 µM | 41.6 µM | 12.6 µM
CCOC(CN=c1nc(N(C)C)ss1)OCC | > 100 | > 80 µM | 25.4 µM | 12 µM | 36 µM | > 100 µM | 39.7 | 4.33 | 44.1 µM | > 100 µM | – | – | – | – | – | – | – | – | – | –
C[N+](C)(CCCCCC[N+](C)(C)CCCN1C(=O)c2cc3ccccc3cc2C1=O)CCCN1C(=O)c2ccccc2C1=O | > 37.5 | > 37.5 µM | > 37.5 µM | > 37.5 µM | > 37.5 µM | > 37.5 µM | > 37.5 | > 37.5 | > 37.5 µM | > 37.5 µM | > 37.5 µM | > 37.5 µM | > 37.5 µM | > 37.5 µM | > 37.5 µM | > 37.5 µM | > 37.5 µM | > 37.5 µM | > 37.5 µM | > 37.5 µM
Nc1c(-c2nc3ccccc3[nH]2)sc(=S)n1-c1ccccc1 | > 100 | > 100 µM | 45.8 µM | > 100 µM | > 100 µM | > 100 µM | > 100 | 81.2 | > 100 µM | > 100 µM | – | – | – | – | – | – | – | – | – | –
O=C(c1ccccc1)c1c(C(=O)c2ccccc2)c(-c2ccccc2)c2c(-c3ccccc3)sc(-c3ccccc3)c2c1-c1ccccc1 | > 100 | > 100 µM | – | > 100 µM | > 100 µM | > 100 µM | > 100 | > 100 | > 100 µM | > 100 µM | – | – | – | – | – | – | – | – | – | –
Cc1ccc2c(N)c(C(=O)N[C@H]3CCc4cc(N5CC6CCC(C5)N6)ccc4C3)sc2n1 | 2.72 | 2.34 µM | 4.49 µM | 1.31 µM | 4.08 µM | 2.08 µM | 3.86 | > 33 | 3 µM | 2.65 µM | 0.348 µM | 0.572 µM | 0.174 µM | 0.172 µM | 0.642 µM | 0.342 µM | 0.497 µM | 0.228 µM | 0.47 µM | 0.775 µM
CC(C(=O)Oc1ccc2ccccc2c1-c1c(O)ccc2ccccc12)c1ccccc1 (configuration not stated) | 34.9 | 37.3 µM | 44.8 µM | 35.1 µM | 23.5 µM | 28.9 µM | 29.3 | 64.4 | 31 µM | 29.4 µM | – | – | – | – | – | – | – | – | – | –
CC(c1cccc2ccccc12)/[N+]([O-])=C/c1ccccc1 (configuration not stated) | > 100 | > 100 µM | > 100 µM | > 100 µM | > 100 µM | > 100 µM | > 100 | > 100 | > 100 µM | > 100 µM | – | – | – | – | – | – | – | – | – | –
C=C1CC[C@@H]2C(C)(C)CCC[C@@]2(C)[C@@H]1Cc1cc(O)ccc1O | 5.65 | 29 µM | 9.07 µM | 4.67 µM | 10.6 µM | 28 µM | 12 | 5.23 | 31.3 µM | 27.6 µM | – | – | – | – | – | – | – | – | – | –
